# Assay results from patent US20070014825A1, “Ant bait attractive to many species of ants and useful in their rapid control” (priority 2005, published 2007).
# Legend:
# ants = assay: Repulsion or loss of attractant activity of bait additives to ants; format: in vivo; conditions: trace amounts added to ant baits
# Carpenter Ant = assay: Liquid carpenter ant bait placed on ant trail: distance traveled after ingestion and kill; format: in vivo, Carpenter Ant (Genus Componatus)
# Method: The above liquid carpenter ant bait was not formulated with a fragrance or dye, although both these additives may can be added. Soak the liquid ant bait in an absorbent wick, cotton ball or tissue and place on ant trail.
# A carpenter ant ingested bait 7a for approximately 20 minutes, walked approximately 1.5-2 feet and was killed. Another carpenter ant ingested bait 7b for approximately 20 minutes, walked 20-30 feet, disappearing in the brush.
# The ant baits of the above examples were tested in their natural environment where the particular ants were found. The baits were distributed in small amounts in the areas where the ants were seen to be active. All of the baits were readily accepted by the various ants. Gradually in all of the examples the numbers of ants in the treated areas was reduced to the point that none could be found.
Compound,Loss in attractant activity of ant bait (ants),Time after Bait Ingestion at which ant disappeared (kill not observed) (Carpenter Ant; Level of toxicant in Bait 0.2%),Time of Ingestion of Bait by Ant (Carpenter Ant; Level of toxicant in Bait 0.2%),"Distance Traveled (Carpenter Ant; Level of toxicant in Bait 0.2%, ant disappeared)","Nest Killed (Carpenter Ant; Level of toxicant in Bait 0.2%, entire nest killed)",Distance Traveled (Carpenter Ant; Level of toxicant in Bait 1.2%),Nest Killed (Carpenter Ant; Level of toxicant in Bait 1.2%),Time Ant Killed after Bait Ingestion (Carpenter Ant; Level of toxicant in Bait 1.2%),Time of Ingestion of Bait by Ant (Carpenter Ant; Level of toxicant in Bait 1.2%)
"O=c1[nH]sc2ccccc12 [1,2-benzisothiazolin-3-one]",Little or no loss in attractant activity,–,–,–,–,–,–,–,–
COP(=O)(NC(C)=O)SC (stereo not drawn) [acephate],–,after 35-40 minutes,˜20 minutes,20-30 feet,Yes,1.5-2 feet,No,˜22-23 minutes,˜20 minutes
